Like-named read-outs stand apart in the source and are kept apart here.
Target: T1, human CCR6 (Homo sapiens, UniProt P51684)
T1 construct: expressed in transfected cells; host or cells: HEK-293
T1 sequence (P51684 1-374): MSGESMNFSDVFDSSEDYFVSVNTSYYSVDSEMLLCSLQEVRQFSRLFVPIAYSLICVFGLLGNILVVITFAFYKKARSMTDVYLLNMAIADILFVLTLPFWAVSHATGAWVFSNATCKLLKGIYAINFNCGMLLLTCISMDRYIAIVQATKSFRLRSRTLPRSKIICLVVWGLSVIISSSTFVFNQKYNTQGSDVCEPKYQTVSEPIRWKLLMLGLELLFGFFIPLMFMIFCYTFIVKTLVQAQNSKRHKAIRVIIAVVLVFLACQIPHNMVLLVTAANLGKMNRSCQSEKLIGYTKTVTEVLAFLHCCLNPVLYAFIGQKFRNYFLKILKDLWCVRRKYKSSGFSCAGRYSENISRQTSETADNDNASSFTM
Assay: FLIPR assay (inhibition of CCL20-induced calcium signal)
Assay type: cell-based
Details: HEK-293 cells expressing human CCR6, mean values where determined several times
Outline: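 Dye-loaded HEK-293 cells expressing human CCR6 were preincubated with compound for 30 min at room temperature in the dark, then challenged with 10 nM CCL20 (final). Fluorescence was tracked on FLIPR, and baseline-subtracted peak emission over base after agonist addition gave inhibition dose-response curves for IC50.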

SMILES | IC50 (read-out: FLIPR IC50) | IC50 (FLIPR IC50 (nM))
CC(C)c1ccc([C@](O)(c2cncc(N3CCC[C@@H]3C)c2)C2(C)CN(C)C2)cc1 [Example 178] | 47.5 nM | –
CC(C)c1ccc([C@](O)(c2cncc(N3CCC(O)(C(F)(F)F)C3)c2)C2(C)CN(C)C2)cc1 (some centres unmarked) [Example 179] | 64.5 nM | –
CC(C)c1ccc([C@](O)(c2cncc(N3CCC(F)(F)C3)c2)C2(C)CN(C)C2)cc1 [Example 180] | 55.7 nM | –
CC(C)c1ccc([C@](O)(c2cncc(N3CCC(O)CC3)c2)C2(C)CN(C)C2)cc1 [Example 181] | 295 nM | –
CC(C)c1ccc([C@](O)(c2cncc(N3CCCC(O)C3)c2)C2(C)CN(C)C2)cc1 (some centres unmarked) [Example 182] | 86.5 nM | –
CC(C)c1ccc([C@](O)(c2cncc(N(C)CCOCc3ccccc3)c2)C2(C)CN(C)C2)cc1 [Example 183] | 31.7 nM | –
CN1CC(C)([C@](O)(c2ccc(C3(C)CC3)cc2)c2cncc(N3CCCC3)c2)C1 [Example 184] | 16.5 nM | –
CN1CC(C)([C@](O)(c2ccc(C3(C(F)(F)F)CC3)cc2)c2cncc(N3C[C@@H](F)[C@@H](F)C3)c2)C1 [Example 185] | 27.9 nM | –
CN1CC(C)([C@](O)(c2ccc(C3(C(F)(F)F)CC3)cc2)c2cncc(N3CC[C@H](C(C)(C)O)C3)c2)C1 [Example 186] | 43.5 nM | –
CN1CC(C)([C@](O)(c2ccc(C3(C(F)(F)F)CC3)cc2)c2cncc(N3CCCC3)c2)C1 [Example 187] | 15.8 nM | –
CN1CC(C)([C@](O)(c2ccc(C(C)(C)C)cc2)c2cncc(N3CCCCC3)c2)C1 [Example 188] | 23.4 nM | –
CC(C)c1ccc([C@](O)(c2cncc(-c3noc(C4CCN(S(=O)(=O)C5CC5)CC4)n3)c2)C2(C)CN(C)C2)cc1 [Example 190, (R)-{5-[5-(1-Cyclopropanesulfonyl-piperidin-4-yl)-[1,2,4]oxadiazol-3-yl]-pyridin-3-yl}-(1,3-dimethyl-azetidin-3-yl)-(4-isopropyl-phenyl)-methanol] | 38 nM | –
CC(C)c1ccc([C@](O)(c2cncc(N(C)CCO)c2)C2(C)CN(C)C2)cc1 [Example 191, 2-({5-[(R)-(1,3-Dimethyl-azetidin-3-yl)-hydroxy-(4-isopropyl-phenyl)-methyl]-pyridin-3-yl}-methyl-amino)-ethanol] | 317 nM | –
CC(C)c1ccc([C@](O)(c2cncc(N3CC(c4ccccc4)OC3=O)c2)C2(C)CN(C)C2)cc1 (some centres unmarked) [Example 194] | 20.5 nM | –
CC(C)c1ccc([C@](O)(c2cncc(N3CC(Cc4ccccc4)OC3=O)c2)C2(C)CN(C)C2)cc1 (some centres unmarked) [Example 195] | 29.3 nM | –
CC(C)c1ccc([C@](O)(c2cncc(N3CC(C(C)C)OC3=O)c2)C2(C)CN(C)C2)cc1 (some centres unmarked) [Example 196] | 67.6 nM | –
CC(C)c1ccc([C@](O)(c2cncc(N3CC4(CC4)OC3=O)c2)C2(C)CN(C)C2)cc1 [Example 197] | 106 nM | –
CC(C)c1ccc([C@](O)(c2cncc(N3CC4(CCCC4)OC3=O)c2)C2(C)CN(C)C2)cc1 [Example 198] | 70.8 nM | –
CC(C)c1ccc([C@](O)(c2cncc(N3CC(C4CCOCC4)OC3=O)c2)C2(C)CN(C)C2)cc1 (some centres unmarked) [Example 199] | 487 nM | –
CC(C)c1ccc([C@](O)(c2cncc(N3CC(C)(C)OC3=O)c2)C2(C)CN(C)C2)cc1 [Example 200] | 407 nM | –

SMILES | IC50 (read-out: FLIPR IC50) | IC50 (FLIPR IC50 (nM))
CC(C)c1ccc([C@](O)(c2cncc(N3CC4(CCC(F)(F)CC4)OC3=O)c2)C2(C)CN(C)C2)cc1 [Example 201] | 159 nM | –
CC(C)c1ccc([C@](O)(c2cncc(N3CC4(CC5(CCC5)C4)OC3=O)c2)C2(C)CN(C)C2)cc1 [Example 202] | 29.9 nM | –
CC(C)c1ccc([C@](O)(c2cncc(N3CC4(CC(C5CC5)C4)OC3=O)c2)C2(C)CN(C)C2)cc1 (some centres unmarked) [Example 203] | 64.9 nM | –
CC(C)c1ccc([C@](O)(c2cncc(N3CC4(CC(C)(C)C4)OC3=O)c2)C2(C)CN(C)C2)cc1 [Example 204] | 48.2 nM | –
CC(C)c1ccc([C@](O)(c2cncc(N3CC(c4ccccc4)CC3=O)c2)C2(C)CN(C)C2)cc1 (some centres unmarked) [Example 205] | 26.9 nM | –
CC(C)c1ccc([C@](O)(c2cncc(N3CCC(C(C)C)C3=O)c2)C2(C)CN(C)C2)cc1 (some centres unmarked) [Example 208] | 38.4 nM | –
CC(C)c1ccc([C@](O)(c2cncc(N3CC(C)(C)CC3=O)c2)C2(C)CN(C)C2)cc1 [Example 209] | 205 nM | –
CC(C)c1ccc([C@](O)(c2cncc(N3CC4(CCCC4)CC3=O)c2)C2(C)CN(C)C2)cc1 [Example 211] | 50.1 nM | –
CC(C)c1ccc([C@](O)(c2cncc(N3CCC4(CCC4)C3=O)c2)C2(C)CN(C)C2)cc1 [Example 212] | 70.8 nM | –
CC(C)c1ccc([C@](O)(c2cncc(N3CC4(CCOCC4)CC3=O)c2)C2(C)CN(C)C2)cc1 [Example 213] | 459 nM | –
CC(C)c1ccc([C@](O)(c2cncc(N3CCC(C4CCOCC4)C3=O)c2)C2(C)CN(C)C2)cc1 (some centres unmarked) [Example 214] | 184 nM | –
CC(C)c1ccc([C@](O)(c2cncc(N3CCC4(CCCCC4)C3=O)c2)C2(C)CN(C)C2)cc1 [Example 215] | 50.9 nM | –
CC(C)c1ccc([C@](O)(c2cncc(N3CCC4(CCOCC4)C3=O)c2)C2(C)CN(C)C2)cc1 [Example 216] | 476 nM | –
CC(C)C[C@H]1CC(=O)N(c2cncc([C@@](O)(c3ccc(C(C)C)cc3)C3(C)CN(C)C3)c2)C1 [Example 217] | 43.3 nM | –
CC(C)c1ccc([C@](O)(c2cncc(N3CC(C4CC4)CC3=O)c2)C2(C)CN(C)C2)cc1 (some centres unmarked) [Example 218] | 60.4 nM | –
CC(C)c1ccc([C@](O)(c2cncc(N3CC(C(F)(F)F)CC3=O)c2)C2(C)CN(C)C2)cc1 (some centres unmarked) [Example 219] | 135 nM | –
COCCC1CCN(c2cncc([C@@](O)(c3ccc(C(C)C)cc3)C3(C)CN(C)C3)c2)C1=O (some centres unmarked) [Example 220] | 214 nM | –
COCCC1CC(=O)N(c2cncc([C@@](O)(c3ccc(C(C)C)cc3)C3(C)CN(C)C3)c2)C1 (some centres unmarked) [Example 221] | 350 nM | –
CC(C)c1ccc([C@](O)(c2cnnc(N3CCCC3=O)c2)C2(C)CN(C)C2)cc1 [Example 222, 1-{5-[(R)-(1,3-Dimethyl-azetidin-3-yl)-hydroxy-(4-isopropyl-phenyl)-methyl]-pyridazin-3-yl}-pyrrolidin-2-one] | 164 nM | –
CC(C)c1ccc(C(O)(c2cncc(N3CC[C@H](C(C)C)C3)c2)C2(C)CN(C)C2)cc1 (stereo partly drawn) [Example 223, (1,3-Dimethyl-azetidin-3-yl)-(4-isopropyl-phenyl)-[5-((R)-3-isopropyl-pyrrolidin-1-yl)-pyridin-3-yl]-methanol] | 29 nM | –

SMILES | IC50 (read-out: FLIPR IC50) | IC50 (FLIPR IC50 (nM))
CC(C)c1ccc([C@](O)(c2cncc(N3C[C@@H](C)O[C@@H](C)C3)c2)C2(C)CN(C)C2)cc1 [Example 224] | 48.5 nM | –
CC(C)c1ccc([C@](O)(c2cncc(N3C[C@H](C)O[C@@H](C)C3)c2)C2(C)CN(C)C2)cc1 [Example 228] | 44.6 nM | –
CC(C)c1ccc([C@](O)(c2cncc(N3C[C@@H](C)O[C@H](C)C3)c2)C2(C)CN(C)C2)cc1 [Example 229] | 59.1 nM | –
Cc1noc(C2CCN(c3cncc([C@@](O)(c4ccc(C(C)C)cc4)C4(C)CN(C)C4)c3)C2)n1 (some centres unmarked) [Example 230] | 36.7 nM | –
Cc1csc(C2CCN(c3cncc([C@@](O)(c4ccc(C(C)C)cc4)C4(C)CN(C)C4)c3)C2)n1 (some centres unmarked) [Example 231] | 14.9 nM | –
CC(C)c1ccc([C@](O)(c2cncc(N3CCC(c4ccccc4)C3)c2)C2(C)CN(C)C2)cc1 (some centres unmarked) [Example 232] | 46.7 nM | –
CC(C)c1ccc([C@](O)(c2cncc(N3CCC(C)(C)C3)c2)C2(C)CN(C)C2)cc1 [Example 233] | 29.7 nM | –
CC(C)c1ccc([C@](O)(c2cncc(N3C[C@@H]4C[C@H]3CO4)c2)C2(C)CN(C)C2)cc1 [Example 234] | 123 nM | –
CC(C)c1ccc([C@](O)(c2cncc(N3CC(F)(F)OC(F)(F)C3)c2)C2(C)CN(C)C2)cc1 [Example 235] | 23.4 nM | –
COC[C@H]1CN(c2cncc([C@@](O)(c3ccc(C(C)C)cc3)C3(C)CN(C)C3)c2)CCO1 [Example 236] | 210 nM | –
COC[C@@H]1CN(c2cncc([C@@](O)(c3ccc(C(C)C)cc3)C3(C)CN(C)C3)c2)CCO1 [Example 237] | 217 nM | –
CC(C)c1ccc([C@](O)(c2cncc(N3CCC(C(F)(F)F)C3)c2)C2(C)CN(C)C2)cc1 (some centres unmarked) [Example 238] | 22.4 nM | –
CC(C)c1ccc([C@](O)(c2cncc(N3C[C@H]4C[C@@H]3CO4)c2)C2(C)CN(C)C2)cc1 [Example 239] | 283 nM | –
CC(C)c1ccc([C@](O)(c2cncc(N3C[C@H]4CC[C@@H](C3)O4)c2)C2(C)CN(C)C2)cc1 [Example 240] | 82.9 nM | –
CN1CC(C)([C@](O)(c2ccc(C3(C(F)(F)F)CC3)cc2)c2cncc(N3C[C@@H]4C[C@H]3CO4)c2)C1 [Example 241] | 128 nM | –
CCc1ccc([C@](O)(c2cncc(N3CCCC3)c2)C2(C)CN(C)C2)cc1 [Example 242] | 22.1 nM | –
CCc1ccc([C@](O)(c2cncc(N3CC4CC(C3)O4)c2)C2(C)CN(C)C2)cc1 [Example 243] | – | 211 nM
CCc1ccc([C@](O)(c2cncc(N3C[C@@H]4C[C@H]3CO4)c2)C2(C)CN(C)C2)cc1 [Example 244] | 274 nM | –
CC(C)c1ccc([C@](O)(c2cncc(OCc3ccccc3)c2)C2(C)CN(C)C2)cc1 [Example 245, (R)-(5-Benzyloxy-pyridin-3-yl)-(1,3-dimethyl-azetidin-3-yl)-(4-isopropyl-phenyl)-methanol] | 26 nM | –

Source: patent US12617773B2, “Azetidin-3-ylmethanol derivatives as CCR6 receptor modulators” (Idorsia Pharmaceuticals Ltd, priority 2020, dated 2026)
